Results taken from patent US4837342A, “Prostacyclin analogue, and blood circulation improving agent and anti-ulcer composition containing it as active ingredient” (Sagami Chemical Research Center, priority 1986, dated 1989).
Read-outs that look alike come from different tables or passages of the source.

Legend:
[1] = tested on: Blood platelet (ADP agglutination); test: Blood platelet agglutination inhibiting activity (ADP-induced), washed rabbit platelet suspension; format: cell-based, rabbit (Japanese white male rabbits); settings: for IC50: Oryctolagus cuniculus, Platelet, ADP 10 μM, concentration suppressing agglutination to 50%, read-out: Platelet agglutination inhibiting activity ED50, ADP agglutination; for Activity ratio, platelet agglutination inhibiting activity, ADP agglutination: relative to prostacyclin = 1
Protocol: (§1) Blood platelet aggutination inhibiting activity
(§2) Japanese white male rabbits having a weight of from 2.0 to 2.5 kg were used.
(§3) Under anesthesia with sodium Pentobarbital, blood was sampled from the carotid artery, and mixed with a 1/7 volume of an anticoagulant citric acid dextrose solution. Then, the mixture was subjected to centrifugal separation at 140×g for 15 minutes, whereupon the supernatant (platelet rich plasma:PRP) was obtained. PRP was subjected to centrifugal separation at 1,300×g for 7 minutes. The blood platelet pellets thus obtained were washed with a HEPES buffer solution (pH 6.5) for washing blood platelets, and subjected to centrifugal separation at 1,300×g for 7 minutes. The blood platelet pellets washed twice under such condition, were suspended in a suspending liquid (a buffer solution for washing blood platelets, which contains 0.1% of human fibrinogen, 1.8 mM of CaCl2 and 1.2 mM of MgCl2) to obtain a blood platelet suspension having a concentration of from 5×10^8 to 8×10^8 platelets/ml.
(§4) The platelet agglutination ability was measured by means of an agglutination meter. To 380 μl of the platelet suspension, 10 μl of a test compound or a solvent as the control, was added. Three minutes later, 10 μl of a platelet agglutinating substance (10 μM of ADP or 1 μg/ml of collagen, as the final concentration) was added thereto to induce agglutination.
(§5) The blood platelet agglutination inhibiting activity of each test compound was represented by ED50 (i.e. the concentration of the test compound where the platelet agglutination is suppressed to 50%).

[2] = tested on: Blood platelet (Collagen agglutination); test: Blood platelet agglutination inhibiting activity (collagen-induced), washed rabbit platelet suspension; format: cell-based, rabbit (Japanese white male rabbits); settings: for IC50: Oryctolagus cuniculus, Platelet, collagen 1 μg/ml, concentration suppressing agglutination to 50%, read-out: Platelet agglutination inhibiting activity ED50, Collagen agglutination; for Activity ratio, platelet agglutination inhibiting activity, Collagen agglutination: relative to prostacyclin = 1
Protocol: as §1, §2, §3, §4, §5

[3] = tested on: coronary artery; test: Blood flow-increasing activity in the coronary artery, anesthetized dog; format: in vivo, crossbred adult dog; settings: for ED50: Canis lupus familiaris, reactive hyperemia = 100%; for ED50 / Blood flow increase in coronary artery: dog, near arterial injection; for Activity ratio, blood flow-increasing activity in coronary artery: relative to prostacyclin = 1; for Blood flow increase in coronary artery: at 3 μg/kg
Protocol: Blood flow-increasing activity in the coronary artery
A crossbred adult dog having a weight of from 9 to 15 kg was anesthetized with sodium Pentobarbital and subjected to thoractomy under artificial respiration. After pericardiectomy, the frontal descending branch of the left coronary artery was separated from the surrounding tissues, and a blood flow-measuring probe was attached thereto under sodium heparin treatment. The coronary blood flow was measured by using an electromagnetic flow meter. The test compound was injected into the coronary artery by near arterial injection, and the blood flow-increasing activity in the coronay artery was represented by ED50 (i.e. the dose of a test compound at which the blood flow increases by 50%, as evaluated on the basis that the blood flow increase by the reactive hyperemia caused by releasing the blood flow of the coronary artery after blocking it for 15 seconds, is evaluated to be 100%).

[4] = tested on: vertebral artery; test: Blood flow-increasing activity in the vertebral artery, anesthetized dog; format: in vivo, crossbred adult dog; settings: for ED50: Canis lupus familiaris, papaverine hydrochloride 100 μg/kg = 100%; for Activity ratio, blood flow-increasing activity in vertebral artery: relative to prostacyclin = 1
Text: Blood flow-increasing activity in the vertebral artery
A made or female crossbred adult dog having a weight of from 8 to 13 kg was anesthetized by intravenous administration of sodium Pentobarbital and subjected to thoractomy along the mediam line under artificial respiration to expose the left vertebral artery. Under sodium peparin treatment, a polyethylene cannula was inserted into the vertebral artery, and a blood flow-measuring probe was attached to its other end, to which a blood circulation tube led from the left femoral artery was connected, whereby the blood flow in the vertebral artery was measured by using an electromagnetic flow meter. The test compound was injected into the vertebral artery by near arterial injection, and the blood flow-increasingactivity in the vertebral artery was represented by ED50 (i.e. the dose of a test compound at which the blood flow increases by 50%, as evaluated on the basis that the blood flow increase (representing substantially the maximum reaction) by the administration of 100 μg/kg papaverine hydrochloride into the vertebral artery, is evaluated to be 100%).

[5] = tested on: femoral artery; test: Blood flow-increasing activity in the femoral artery, anesthetized dog; format: in vivo, crossbred adult dog; settings: for ED50: Canis lupus familiaris, papaverine hydrochloride 100 μg/kg = 100%; for Activity ratio, blood flow-increasing activity in femoral artery: relative to prostacyclin = 1
Protocol: Blood flow-increasing activity in the femoral artery
A male or female crossbred adult dog having a weight of from 8 to 13 kg, was anesthetized by intravenous administration of sodium Pentobarbital. Then, a tracheal cannula was inserted, and artificial respiration was conducted. The blood flow in the femoral artery was measured by inserting the annula into the left femoral artery under sodium heparin treatment and providing a blood flow measuring probe at it other end, and by using an electromagnetic flow meter. The test compound was injected into the femoral artery by near arterial injection, and the blood flow-increasing activity in the femoral artery was represented by ED50 (i.e. the dose of a test compound at which the blood flow increases by 50%, as evaluated on the bais that the blood flow increase (representing substantially the maximum reaction) by the administration of 100 μg/kg of papaveline hydrochloride into the femoral artery, is evaluted to be 100%).

[6] = tested on: diastolic blood pressure; test: Hypotensive activity, anesthetized dog; format: in vivo, crossbred adult dog; settings: for Activity ratio, hypotensive activity: relative to prostacyclin = 1; for ED (50 mmHg): Canis lupus familiaris, iv
Protocol: A male or female crossbred adult dog having a weight of from 9 to 14 kg was anesthetized by intraveous administration of sodium Pentobarbital. Then, the left carotid was exposed under artificial respiration, and the blood pressure was measured by using an electric blood pressure meter. […]

[7] = tested on: Ethanol ulcer; test: Ethanol ulcer inhibiting activity; format: in vivo, Male wister rats; settings: rat; for ED50: po, P.O., 30 minutes before 99.5% ethanol; for Ethanol ulcer inhibition: oral administration of 30 μg/kg
Protocol: Ethanol ulcer inhibiting activity
Male wister rats having a weight of from 170 to 270 g were put into individual cages and starved for 24 hours. During this starvation period, the rats were allowed to drink water freely. A test compound or PGE2 as a comparative compound was orally administered in an amount of 3, 10 or 30 μg/kg, and 30 minutes later, 1 ml of 99.5% ethanol was orally administered to each rat. One hour after the ethanol administration, each rat was filled by cervical vertebral luxation, and the stomach was taken out. A 1% formaline solution was injected into the stomach in an amount of about 8 ml, and the stomach was fixed in the formaline solution for 30 minutes. After the fixing, the stomach was severed along the greater curvature, and the mucous membrane surface of the stomach was gently washed with flowing water. Then, the total length of damages appearing on the gastric glandular portion was obtained and used as the ulcer index.
The ethanol ulcer inhibiting activity of a test compound was represented by ED50 (i.e. the dose of the test compound at which the ulcer was inhibited by 50% relative to the ulcer index of the non-treated group). To the non-treated group, the solvent was administered.

[8] = tested on: Hydrochloric acid ulcer; test: Hydrochloric acid ulcer inhibiting activity; format: in vivo, wister rats; settings: rat; oral administration of 30 μg/kg; 0.6N hydrochloric acid; read-out: Hydrochloric acid ulcer inhibiting activity, Inhibiting rate
Protocol: Hydrochloric acid ulcer inhibiting activity
Male wister […] having a weight of from 190 to 240 g were used. The rats were starved in the same manner as in Test Example 6, and the test compounds and PGE2 were, respectively, orally administered in an amount of 30 μg/kg, and 30 minutes later, 1 ml of 0.6N hydrochloric acid was orally administered. Thirty minutes after the hydrochloric acid administration, each rat was killed by cervical vertebral luxation. Then, the stomach was taken out and fixed, and the ulcer index was obtained, in the same manner as in Test Example 6. The hydrochloric acid ulcer inhibiting activity of a test compound was represented by the inhibiting percentage (i.e. the percentage of the ulcer index of the treated group to the ulcer index of the non-treated group). To the non-treated group, the solvent was administered.

[9] = tested on: Indomethacine ulcer; test: Indomethacine ulcer inhibiting activity; format: in vivo, Male wister rats; settings: rat
Text: Indomethacine ulcer inhibiting activity
Male wister rats having a weight of from 210 to 270 g were used. The rats were starved in the same manner as in Test Example 6. […] Three hours after the indomethacine administration, the test compound or PGE2 was again orally administered in the same amount. Six hours after the first administration of indomethacine, each rat was killed by cervical bertebral luxation. The stomach was taken out and fixed, and the ulcer index was obtained, in the same manner as in Test Example 6.
The indomethacine ulcer inhibiting activity of a test compound was represented by the inhibiting percentage (i.e. the inhibiting percentage of the ulcer index of the treated group to the ulcer index of the non-treated group). To the non-treated group, the solvent was administered.

[10] = background; cited from earlier work
[11] = oral administration of 60 μg/kg twice
[12] = dog, at 3 μg/kg, near arterial injection

IC50 [1] [nM] | IC50 [2] [nM] | SMILES | Activity ratio, platelet agglutination inhibiting activity, Collagen agglutination [2] | ED50 [3] [µg/kg] | Activity ratio, blood flow-increasing activity in coronary artery [3] | ED50 ([4]; dog, near arterial injection) [µg/kg] | Activity ratio, blood flow-increasing activity in vertebral artery [4] | ED50 ([5]; dog, near arterial injection) [µg/kg] | Activity ratio, blood flow-increasing activity in femoral artery [5] | Hypotensive activity, blood pressure decrease ([6]; dog, at 10 μg/kg i.v.) [mmHg] | Activity ratio, hypotensive activity [6] | ED50 [7] [µg/kg] | inhibition in vivo at 0.03 mg/kg [8] [%] | Activity ratio, platelet agglutination inhibiting activity, ADP agglutination [1] | Ethanol ulcer inhibition [7] [%] | Indomethacine ulcer inhibition (in words) [9, 11] | also measured
22 | 24 | CCC#CCC(C)[C@H](O)/C=C/[C@@H]1[C@H]2CC=C(CCCCC(=O)O)C[C@H]2C[C@H]1O (stereo partly drawn) [(i)] | 1/7 | 3.6 | 1/360 | 0.8 | 1/18 | 0.56 | 1/23 | 24.5 | 1/152 | 5.89 | 17.4 |  |  |  | Hypotensive activity, blood pressure decrease ([6]; at 60 μg/kg i.v. (so in the source), Table 2): 24.5 mmHg; Indomethacine ulcer inhibiting activity, Inhibiting rate ([9]; oral administration of 10 μg/kg twice (so in the source)): 49.5%
 |  | CCCCC[C@H](O)/C=C/[C@H]1[C@H](O)CC(=O)[C@@H]1C/C=C\CCCC(=O)O [PGE2, reference compound] |  |  |  |  |  |  |  |  |  | 9.03 | 61.6 |  |  |  | Indomethacine ulcer inhibiting activity, Inhibiting rate ([9]; oral administration 30 μg/kg twice): 98.3%
 |  | CCCCC[C@H](O)/C=C/[C@@H]1[C@H]2C=C(CCCCC(=O)O)C[C@H]2C[C@H]1O [9-(O)-methano-Δ^6 -PGI1] |  |  |  |  |  |  |  |  |  |  |  |  |  |  | Chemical stability (in words) [10]: chemically stable
1300 | 970 | CCCCC[C@H](O)/C=C/[C@@H]1[C@H]2CCC(CCCC(=O)O)=C[C@H]2C[C@H]1O [(a), 3-(3-carboxypropyl)-7-exo-(3α-hydroxy-trans-1-octenyl)-8-endo-hydroxy-cis-bicyclo[4,3,0]nona-2-ene] | 1/285 |  | About 1/500 | 0.44 | 1/10 | 0.19 | 1/8 | 20 | 1/192 |  | 15.3 | 1/455 | 20.0 | Certain inhibition | Blood flow increase in coronary artery [3]: 37.6%
38 |  | CCC#CCC(C)[C@H](O)/C=C/[C@@H]1[C@H]2CCC(CCOCC(=O)O)=C[C@H]2C[C@H]1O (stereo partly drawn) [(g), 3(3-oxa-4-carboxybutyl)-7-exo-(3α-hydroxy-4,8-dimethyl-1-trans-octen-6-ynyl)-8-endo-hydroxy-cis-bicyclo[4,3,0]nona-2-ene] |  | 0.55 | 1/55 | 2 | 1/45 | 0.72 | 1/30 |  | 1/67 | 5.38 | 42.1 | 1/13 |  |  | ED (50 mmHg) ([6]; Table 2, read-out: Hypotensive activity ED50 mmHg): 16.1 µg/kg; ED (50 mmHg) ([6]; dog, femoral vein, Table 1, read-out: Hypotensive activity ED50 (dose reducing diastolic blood pressure by 50 mmHg)): 16 µg/kg; Indomethacine ulcer inhibiting activity, Inhibiting rate [9, 11]: 57.3%
 |  | O=C(O)CCC/C=C1\C[C@H]2C[C@@H](O)[C@H](/C=C/[C@@H](O)C3CCCC3)[C@H]2C1 [OP-41483] |  |  |  |  |  |  |  |  |  |  |  |  |  |  | Chemical stability (in words) [10]: chemically stable
> 3000 |  | CCC#CCC(C)[C@H](O)/C=C/[C@@H]1[C@H]2CCC(COCCC(=O)O)=C[C@H]2C[C@H]1O (stereo partly drawn) [(h)] |  |  |  |  |  |  |  | 15 |  |  | 21.3 |  | 32.5 | Certain inhibition | Blood flow increase in coronary artery [3]: 25%; Blood flow increase in vertebral artery [4, 12]: 28.5%; Blood flow increase in femoral artery [5, 12]: 31.7%
290 | 280 | CCCCC[C@H](O)/C=C/[C@@H]1[C@H]2CCC(CCCCC(=O)O)=C[C@H]2C[C@H]1O [(e), 3-(4-carboxybutyl)-7-exo-(3α-hydroxy-trans-1-octenyl)-8-enodo-hydroxy-cis-bicyclo[4,3,0]nona-2-ene] | 1/82 | 3.8 | 1/380 | 2.5 | 1/57 | 0.46 | 1/19 | 17.9 | 1/213 |  | 18.3 | 1/100 | 28.5 | Certain inhibition | 
